# In article PMC9095416 (Medicinal Chemistry Research, 2022):
# Assays:
# SARS-CoV-2 M^pro [1] = target: T1, SARS-CoV-2 M^pro (Severe acute respiratory syndrome coronavirus 2, UniProt P0DTD1); experiment: cell-based
# SARS-CoV-2 PL^pro = SARS-CoV-2 PL^pro (Severe acute respiratory syndrome coronavirus 2, UniProt P0DTD1); experiment: FRET-based enzymatic assay, SARS-CoV-2 PL^pro; assay type: biochemical
# SARS-CoV-2 M^pro [2] = target: T1, SARS-CoV-2 M^pro; experiment: FRET-based enzymatic assay, SARS-CoV-2 M^pro; assay type: biochemical; conditions: FRET assay M^pro IC50, 4 mM DTT
structure (smiles),measurement,setting,value
"Oc1cc(O)cc(Oc2c(O)cc(O)c3c2Oc2c(O)cc(Oc4c(O)cc(Oc5c(O)cc(O)c6c5Oc5c(O)cc(O)cc5O6)cc4O)cc2O3)c1 [Dieckol, dieckol]",IC50,SARS-CoV-2 M^pro [1],> 60 µM
same,IC50,SARS-CoV-2 PL^pro,> 20 µM
same,IC50,SARS-CoV-2 M^pro [2],> 20 µM
